For series [1] the following is noted: I = 0.15 M NaCl, T = 25 °C; cited from earlier work.
Series [2] in a line: pH‐potentiometric determination of ligand protonation constants. The series is classed as physicochemical. As to conditions: I = 0.15 M NaCl, T = 25 °C. Here is the method: The equilibrium study of the PC2AM^nBu ligand has been started by determining the protonation constants in 0.15 M and 1.00 M NaCl ionic strength. (As the stability of the Sc(III) complex was determined in 1.00 M ionic strength, we had to perform the pH‐potentiometric titration of ligands using 1.00 M ionic strengths also.) The results of pH‐potentiometric measurement are shown in Table 1, where the corresponding data for 3,9‐PC2A,^[ [42] ^] PCTA ^[ [46] ^] and PC2AM‐NI ligands determined under identical conditions are also presented. Knowledge of the protonation constants defined by Eqn. 1 and 2 are essential for the calculation of the stability constants of the Sc(III) complexes:
(1) PC2AM^nBu^2−+nH^+⇌Hn(PC2AM^nBu)^−2+n (2) βn=HnPC2AM^nBu^−2+n/PC2AM^nBu^2−H^+^n
The protonation constants of the ligands, as well as the concentrations of the ligand stock solutions, were determined by pH‐potentiometric method using a Metrohm 785 DMP Titrino automatic titrator using a Metrohm 6.00234.100 combined glass electrode. The titrations were carried out in the pH range 1.75–11.80 and the pH electrode was calibrated by a two‐point calibration routine with the use of 0.05 M KH‐phthalate (pH = 4.005) and 0.01 M borax (pH = 9.177 buffers. The samples were stirred at 25 °C (±0.1 °C) and N2 gas bubbled into the system to ensure inert conditions and to eliminate the effect of the presence of CO2. For the calculation of [H^+] from the measured pH values, the method proposed by Irving et al. was applied.^[ [61] ^] For this, a 0.01 M HCl solution was titrated with the standardized NaOH solution in the presence of 0.15 M NaCl ionic strength at 25 °C. The differences between the measured (pHread) and calculated pH (‐log[H^+]) values were used to obtain the equilibrium H^+ concentration from the pHmeas values during the titrations. By fitting the resulting titration curves (pH – V (NaOH) data pairs) with the PSEQUAD program, the protonation constants of the ligands were determined.^[ [47] ^] The titration of the [Sc(PC2AM^nBu)]^+ with NaOH was performed with the same method by applying very similar conditions.

The subject of series [3] is B16‐F10 tumor‐bearing C57BL/6 mice. Nature of the series: In vivo PET studies (MiniPET‐II). Particulars: n = 5. From the text: The B16‐F10 mouse melanoma cell line (MC1‐R positive) was the kind gift of the Department of Immunology, Faculty of Medicine, University of Debrecen (Debrecen, Hungary). The cells were routinely cultivated according to the manufacturer's protocols using Dulbecco's Modified Eagle's medium (DMEM, Merck Life Science Ltd., Budapest, Hungary) supplemented with 1% (v/v) MEM Non‐Essential Amino Acid solution (Merck Life Science Ltd.), 1% MEM Vitamins solution (Merck Life Science Ltd.), 10% Fetal Bovine Serum (FBS, GIBCO Life Technologies, Billings, MT, USA), and 1% Antibiotic and Antimicotic solution (Merck Life Science Ltd.) at 37 °C in a humidified atmosphere containing 5% CO2. For tumor induction the cells were used at 85% confluence. Cell viability was determined by applying trypan blue exclusion assay. Those cells were used for subsequent experiments where the staining confirmed that more than 90% of them were viable.
(§1) All animal experiments confirmed to all applicable sections of the Hungarian Laws and the directions and regulations of the European Union, and the in vivo studies have been ethically approved by the Ethics Committee for Animal Experimentation of the University of Debrecen (license number: 16/2020/DEMÁB). C57BL/6 male mice (n = 32, older than 12 weeks, approx. 20 grams) obtained from Charles River Animalab Ltd. (Budapest, Hungary) were used for in vivo PET studies and biodistribution assays. To induce tumor models, 20 mice were subcutaneously transplanted with approximately 3x10^6 tumor cells (in 100 µL physiological saline) at the left shoulder area. Tumor growth was regularly monitored by using caliper measurements. During tumor generation inhalation anesthesia was induced using 3% isoflurane (Forane, AbbVie, Chicago, IL, USA), 0.4 L/min O2, and 0.8 L/min N2O.
Preclinical PET studies were performed on the MiniPET‐II scanner of the Department of Nuclear Medicine and Translational Imaging, Institute of Medical Imaging, Faculty of Medicine, University of Debrecen (Debrecen, Hungary). Fourteen days post tumor induction, tumor‐bearing mice (n = 20) were anesthetized (see above) and tail vein injected with approximately 5–7 MBq of [^44Sc][Sc(PC2AM‐NI)]^+ or [^44Sc][Sc(PC2A‐Ph‐NI)]^+. After a 90 ‐ and a 240‐minutes awake incubation period, the mice were re‐anesthetized and 20‐minutes static PET scans were taken. To quantify radiopharmaceutical uptake, followed by image reconstruction (3D ordered‐subsets expectation‐maximization algorithm (3D‐OSEM)), volumes of interest (VOIs) were manually outlined on the tumors and on the hindlimb muscle tissue as a reference region. Using a dedicated imaging analysis software: BrainCAD image analysis software (version: 1.12‐bulid3), mean standardized uptake values (SUVmean) were determined with the following equation: SUV = [VOI activity (Bq/mL)]/[injected activity (Bq)/animal weight (g)]. To assess image contrast, tumor‐to‐off‐target ratios (tumor‐to‐muscle ratio/T/M) were also calculated.

Series [4] deals with healthy control and B16‐F10 melanoma cell‐bearing mice. Nature of the series: Ex vivo biodistribution studies. The class given is in vivo. Particulars: for B16‐F10 tumor uptake: 14 days after cancer cell inoculation, n = 5 tumor‐bearing mice.
Text: as §1
To evaluate the organ distribution of the novel ^44Sc‐labeled radiotracers, ex vivo biodistribution experiments were additionally performed. Healthy control and tumor‐bearing mice were administered with approximately 5–7 MBq of [^44Sc][Sc(PC2AM‐NI)]^+ or [^44Sc][Sc(PC2A‐Ph‐NI)]^+ and at 90 ‐ and 240‐minutes post injection, all of them were put to death. Organs and tissues of interest were collected, weighed wet, and γ‐counted (Perkin‐Elmer Packard 406 Cobra, Waltham, MA, USA). After decay correction, the radioactivity of each tissue and organ was calculated as %ID/g.

Like-named read-outs stand apart in the source and are kept apart here.

These results are taken from PMC12731536, “Sc(III) Complexes of Pyclen Derivative Ligands as Probes for Hypoxia: Synthesis, Chemical Characterization, ^44Sc‐Radiolabeling, and Preclinical Assessment” (Chemistry (Weinheim an Der Bergstrasse, Germany), 2025).

As for `O=C(O)CN1CCNCCN(CC(=O)O)Cc2cccc(n2)C1` [3,9‐PC2A], in series [1], the “log K 1 ^H” value is listed as 12.25, the “log K 2 ^H” value was 5.97, the “log K 3 ^H” value is recorded as 3.47 and the “log K 4 ^H” value was 1.99. Besides, the “log β 2 ^H” value in series [1] is on record as 18.22.
In the case of `O=C(O)CN1CCN(CC(=O)NCCCCCCn2ccnc2[N+](=O)[O-])CCN(CC(=O)O)Cc2cccc(n2)C1` [PC2AM‐NI], in series [2], the “log K 1 ^H” value was 8.60(3), the “log K 2 ^H” value is 7.39(3), the “log K 3 ^H” value is 2.28(3) and the “log K 4 ^H” value is 1.58(3). Further, in series [2], the “log β 2 ^H” value turned out to be 15.99.
`O=C([O-])CN1CCN(CC(=O)NCCCCCCn2ccnc2[N+](=O)[O-])CCN(CC(=O)[O-])Cc2cccc(n2)C1.[44Sc+3]` [[^44Sc][Sc(PC2AM‐NI)]^+]: in series [3] (90 minutes post injection), the “B16‐F10 SUVmean” value stood at 0.08 ± 0.02, the “T/M ratio (tumor‐to‐muscle)” value came out at 4.04 ± 0.02 and the “muscle SUVmean” value was found to be 0.02 ± 0.01. Moreover, in series [3] (240 minutes post injection), the “B16‐F10 SUVmean” value is 0.04 ± 0.02, the “T/M ratio (tumor‐to‐muscle)” value is reported as 4.02 ± 0.02 and the “muscle SUVmean” value amounted to 0.01 ± 0.01. Also, in series [4] (90 minutes post injection), the Blood uptake is given as 0.09 ± 0.02 %ID/g, the Bone uptake is 0.02 ± 0.00 %ID/g, the Brain uptake is 0.01 ± 0.01 %ID/g and the Fat uptake is recorded as 0.05 ± 0.02 %ID/g. In series [4] (90 minutes post injection), this molecule registered a Heart uptake of 0.04 ± 0.01 %ID/g, a Kidney uptake of 0.83 ± 0.29 %ID/g, a Liver uptake of 1.55 ± 1.66 %ID/g and a Lung uptake of 0.10 ± 0.02 %ID/g. For the same molecule, in series [4] (90 minutes post injection), the Muscle uptake is reported as 0.02 ± 0.00 %ID/g, the Pancreas uptake is 0.04 ± 0.02 %ID/g, the Spleen uptake was 0.07 ± 0.02 %ID/g and the Stomach uptake is listed as 0.09 ± 0.02 %ID/g. In series [4] (90 minutes post injection), this molecule came in with a Urine activity of 77.19 ± 37.26 %ID/g, a gall bladder uptake of 42.46 ± 33.31 %ID/g, a large intestines uptake of 0.10 ± 0.07 %ID/g and a salivary gland uptake of 0.03 ± 0.00 %ID/g. Moreover, in series [4] (90 minutes post injection), the small intestines uptake is recorded as 0.92 ± 0.33 %ID/g and the “B16‐F10 tumor uptake” value is given as 0.27 ± 0.07 %ID/g. Moreover, in series [4] (240 minutes post injection), the Blood uptake is 0.02 ± 0.01 %ID/g, the Bone uptake worked out at 0.01 ± 0.00 %ID/g, the Brain uptake is given as 0.01 ± 0.00 %ID/g and the Fat uptake is 0.01 ± 0.00 %ID/g. Further, in series [4] (240 minutes post injection), the Heart uptake was determined as 0.01 ± 0.00 %ID/g, the Kidney uptake came to 0.60 ± 0.37 %ID/g, the Liver uptake amounted to 0.90 ± 1.01 %ID/g and the Lung uptake is reported as 0.03 ± 0.01 %ID/g. Moreover, in series [4] (240 minutes post injection), the Pancreas uptake was determined as 0.01 ± 0.00 %ID/g, the Spleen uptake was 0.03 ± 0.02 %ID/g, the Stomach uptake was 0.04 ± 0.03 %ID/g and the Urine activity is 5.44 ± 1.23 %ID/g. In series [4] (240 minutes post injection), this molecule registered a gall bladder uptake of 15.82 ± 13.89 %ID/g, a large intestines uptake of 0.12 ± 0.12 %ID/g, a salivary gland uptake of 0.01 ± 0.01 %ID/g and a small intestines uptake of 0.20 ± 0.10 %ID/g. Also, the “B16‐F10 tumor uptake” value in series [4] (240 minutes post injection) is 0.17 ± 0.07 %ID/g.
